Test results as given in the OligoGym collection.
Several values for one entry are separate records, joined by “and”; a condition that tells them apart may be missing. Identical values can stand only once. After the bases stand the sugars from the 5' end (letter, count) and the backbone: PS all phosphorothioate, else s phosphorothioate and o phosphodiester by linkage. Methylation of C is not given here. e = 2'-O-(2-methoxyethyl) (MOE); k = constrained ethyl (cEt); d = 2'-deoxy (DNA); m = 2'-O-methyl

biological target: HSD17B13; conditions: ASO, HepaRG, 0.02 µM

In order of falling target mRNA inhibition:
1. GTTGATATTCTGTGGC (sugars k3 d9 k3 e1, PS)  23%
2. GTTGATATTCTGTGGC (sugars k3 d10 k3, PS)  23%
3. GTTAATGTAGTGTTTA (sugars k3 d10 k3, PS)  7%
4. TAAAATAGAGTCGGTC (sugars k3 d9 k3 e1, PS)  0%

same assay, conditions: ASO, HepaRG, 0.078 µM

In order of rising target mRNA inhibition:
1. TAAAATAGAGTCGGTC (sugars k3 d9 k3 e1, PS)  12%
2. GTTGATATTCTGTGGC (sugars k3 d9 k3 e1, PS)  17%
3. GTTAATGTAGTGTTTA (sugars k3 d10 k3, PS)  25%
4. GTTGATATTCTGTGGC (sugars k3 d10 k3, PS)  42%

same assay, conditions: ASO, HepaRG, 0.313 µM

In order of rising target mRNA inhibition:
1. TAAAATAGAGTCGGTC (sugars k3 d9 k3 e1, PS)  31%
2. GTTAATGTAGTGTTTA (sugars k3 d10 k3, PS)  45%
3. GTTGATATTCTGTGGC (sugars k3 d9 k3 e1, PS)  49%
4. GTTGATATTCTGTGGC (sugars k3 d10 k3, PS)  53%

same assay, conditions: ASO, HepaRG, 1 µM

In order of rising target mRNA inhibition:
1. GTGCTGAGAAGATCGG (sugars k3 d10 k3, PS)  0%
2. TAAACAATATTAAGGG (sugars k3 d10 k3, PS)  0%
3. TAAGGATCATTGCAGA (sugars k3 d10 k3, PS)  0%
4. TAAACTAAAGTACTTG (sugars k3 d10 k3, PS)  1%
5. GTGCACTCATTCTGTG (sugars k3 d10 k3, PS)  6%
6. TAAATACCCTTGGTGG (sugars k3 d10 k3, PS)  7%
7. TAGTAATTGCTATAGT (sugars k3 d10 k3, PS)  7%
8. TAGAATTGTCTGTTAG (sugars k3 d10 k3, PS)  9%
9. TAAGATACCCAGGTTG (sugars k3 d1 m1 d8 k3, PS)  11%
10. TAATTCTAAACTAGTG (sugars k3 d10 k3, PS)  11%
11. TACTTACTTCTGTAGT (sugars k3 d10 k3, PS)  12%
12. TAAACTAGTGGTAATG (sugars k3 d10 k3, PS)  14%
13. TAATCATGGGACAGGA (sugars k3 d10 k3, PS)  15%
14. TAGGAGTAGATGATGG (sugars k3 d10 k3, PS)  15%
15. TACCAAGAGGGTTTTT (sugars k3 d10 k3, PS)  17%
16. TATCAAAATGGTGGCG (sugars k3 d10 k3, PS)  18%
17. GTGCAAGATGATGACA (sugars k3 d10 k3, PS)  19%
18. TAAGTAGTCTGCCTGC (sugars k3 d10 k3, PS)  19%
19. TAAAAAATTGGTTTCG (sugars k3 d10 k3, PS)  22%
20. TAGAGAGCGATAGATC (sugars k3 d10 k3, PS)  22%
21. TATAGCTAAGTATACT (sugars k3 d10 k3, PS)  23%
22. TAATACATTAGCAAGC (sugars k3 d1 m1 d8 k3, PS)  26%
23. TAAGCTGAGAGTTCTA (sugars k3 d1 m1 d8 k3, PS)  27%
24. TAGGAAAGCTCATGGT (sugars k3 d10 k3, PS)  27%
25. TAGTACCAAGACACTA (sugars k3 d10 k3, PS)  27%
26. TAGTATAGTTATCTTC (sugars k3 d9 k3 e1, PS)  28%
27. GTGCATCTTAAGATAC (sugars k3 d9 k3 e1, PS)  29%
28. GTTAUTCTCTTGACAA (sugars k3 d1 m1 d8 k3, PS)  29%
29. TAAGCTGAGAGTTCTA (sugars kkdddddddddkekek, PS)  29%
30. GTTATCAGAAACTTAT (sugars k3 d10 k3, PS)  31%
31. TAAGTATTCCATCTAT (sugars k3 d10 k3, PS)  31%
32. TAGAATTAAGGGCTAT (sugars k3 d10 k3, PS)  31%
33. TAAACATCTCTGGGAC (sugars k3 d9 k3 e1, PS)  32%
34. GTGTAGTTTGGTGGGC (sugars k3 d10 k3, PS)  33%
35. TAAACATAGGCTTAGT (sugars k3 d10 k3, PS)  34%
36. TAGGTAGCTAATGTAT (sugars k3 d10 k3, PS)  34%
37. TAGTATAGTTATCTTC (sugars kkdddddddddkekek, PS)  34%
38. GTTGCACCGTTTTGGG (sugars kkdddddddddkekek, PS)  35%
39. TAAATCAGGCAGTCAT (sugars k3 d10 k3, PS)  35%
40. TAGTTTTCGGCACTCA (sugars k3 d10 k3, PS)  35%
41. GTCTTGGTAATCTCTT (sugars k3 d10 k3, PS)  37%
42. TAACTACATGACCTGG (sugars k3 d10 k3, PS)  37%
43. GTTCAGTCCTTGTGTA (sugars k3 d10 k3, PS)  38%
44. GTTTUTAAGAGGCATG (sugars k3 d1 m1 d8 k3, PS)  38%
45. TACATATCAATGCCTT (sugars k3 d10 k3, PS)  38%
46. GTTGAGATAAAGCTGC (sugars kkdddddddddkekek, PS)  40%
47. TAGTCTTCAGCAAAGT (sugars k3 d1 m1 d8 k3, PS)  41%
48. TAGTGGACTTCATTAG (sugars kkdddddddddkekek, PS)  41%
49. GTGCCAAACCAATGTT (sugars k3 d10 k3, PS)  43%
50. TAGTCTTGATGTAGTG (sugars kkdddddddddkekek, PS)  43%
51. GTGAAATCTTGTGTAA (sugars k3 d10 k3, PS)  44%
52. TAATAGCCAGTACAGT (sugars kkdddddddddkekek, PS)  44%
53. TAGTCTGCCTGCCTAT (sugars k3 d10 k3, PS)  44%
54. TATAACTGGAAGGAGG (sugars k3 d10 k3, PS)  44%
55. GTTAGAATAGTCTTCA (sugars kkdddddddddkekek, PS)  45%
56. GTTAGAATAGTCTTCA (sugars k3 d10 k3, PS)  46%
57. TAAACCTTCCCTGTGT (sugars k3 d1 m1 d8 k3, PS)  46%
58. TAGTGTAGAATTGTCT (sugars k3 d10 k3, PS)  46%
59. TATAATTACAACCTGG (sugars k3 d10 k3, PS)  46%
60. TACTATTCTCCAACTC (sugars k3 d10 k3, PS)  47%
61. TAGGATTAATCATGGG (sugars k3 d10 k3, PS)  47%
62. TAGAGTCGGTCACCTT (sugars kkdddddddddkekek, PS)  48%
63. TAGCTAATGTATGAGG (sugars k3 d10 k3, PS)  48%
64. GTGGTAACGGTGATCA (sugars k3 d10 k3, PS)  49%
65. TAGAATAGTCTTCAGC (sugars k3 d9 k3 e1, PS)  50%
66. GTTAGTATAGTTATCT (sugars kkdddddddddkekek, PS)  51%
67. GTTGAGATAAAGCTGC (sugars k3 d1 m1 d8 k3, PS)  51%
68. TAATAGCCAGTACAGT (sugars k3 d1 m1 d8 k3, PS)  51%
69. TAATGTATGAGGTCTC (sugars k3 d10 k3, PS)  51%
70. TAGTAATTGCATCTGC (sugars k3 d10 k3, PS)  51%
71. GTGGGATAAACTGTTC (sugars k3 d10 k3, PS)  52%
72. TAAAATAGAGTCGGTC (sugars k3 d1 m1 d8 k3, PS)  52%
73. TAAGCAGAATTGTGAA (sugars k3 d9 k3 e1, PS)  52%
74. TAGCCAGTACAGTTCC (sugars k3 d10 k3, PS)  52%
75. TAACTGAGCTAGACAA (sugars k3 d10 k3, PS)  53%
76. TAAGAGGCATGAAAGG (sugars kkdddddddddkekek, PS)  54%
77. TAATCTTGTGCTTGGA (sugars k3 d10 k3, PS)  54%
78. TAGTGGGAGTCGGATT (sugars k3 d10 k3, PS)  54%
79. TAGTCTTGATGTAGTG (sugars k3 d10 k3, PS)  55%
80. TATAGACTGGGTAGGA (sugars k3 d9 k3 e1, PS)  55%
81. GTGTAAGCTGAGAGTT (sugars kkdddddddddkekek, PS)  57%
82. GTTCTTATCCACACCT (sugars k3 d10 k3, PS)  57%
83. TAGCCAGTACAGTTCC (sugars kkdddddddddkekek, PS)  57%
84. TAGAGAGCATAAGTTA (sugars k3 d10 k3, PS)  59%
85. TATAGTTATCTTCTCA (sugars k3 d9 k3 e1, PS)  59%
86. TAGCTTAAACTCCAAT (sugars k3 d10 k3, PS)  60%
87. TAGCTTTTGTCCACCT (sugars k3 d10 k3, PS)  60%
88. TATAGACTGGGTAGGA (sugars k3 d10 k3, PS)  61%
89. TAATTAATCTTGTTCG (sugars k3 d10 k3, PS)  63%
90. TAGCTATTGTCTTTGA (sugars k3 d10 k3, PS)  63%
91. GTTTATCAGTAAAGTG (sugars k3 d10 k3, PS)  64%
92. TAGGCTAAACCCTGGA (sugars k3 d10 k3, PS)  64%
93. TAGTAATCACAAGTAA (sugars k3 d9 k3 e1, PS)  65%
94. GTGTAGTCCTAGGGAG (sugars k3 d10 k3, PS)  67%
95. GTTATTGTAGGGATTG (sugars k3 d10 k3, PS)  69%
96. TAGCCAGTACAGTTCC (sugars k3 d1 m1 d8 k3, PS)  70%
97. GTTAGAATAGTCTTCA (sugars k3 d9 k3 e1, PS)  71%
98. GTTTTGCAAGTTTATC (sugars k3 d10 k3, PS)  73%
99. TAAAATAGAGTCGGTC (sugars k3 d9 k3 e1, PS)  74%
100. GTTAATGTAGTGTTTA (sugars k3 d10 k3, PS)  77%
101. GTTGATATTCTGTGGC (sugars k3 d10 k3, PS)  80%

With “GTTGATATTCTGTGGC (sugars k3 d9 k3 e1, PS)” the target mRNA inhibition was 73% and 50%.

same assay, conditions: ASO, HepaRG, 1.25 µM

In order of rising target mRNA inhibition:
1. TAAAATAGAGTCGGTC (sugars k3 d9 k3 e1, PS)  55%
2. GTTGATATTCTGTGGC (sugars k3 d9 k3 e1, PS)  61%
3. GTTAATGTAGTGTTTA (sugars k3 d10 k3, PS)  78%
4. GTTGATATTCTGTGGC (sugars k3 d10 k3, PS)  87%

same assay, conditions: ASO, HepaRG, 5 µM

In order of falling target mRNA inhibition:
1. GTTGATATTCTGTGGC (sugars k3 d10 k3, PS)  93%
2. GTTAATGTAGTGTTTA (sugars k3 d10 k3, PS)  92%
3. TAAAATAGAGTCGGTC (sugars k3 d9 k3 e1, PS)  77%
4. GTTGATATTCTGTGGC (sugars k3 d9 k3 e1, PS)  55%
